Publication PMC10447463, “Data-mining unveils structure–property–activity correlation of viral infectivity enhancing self-assembling peptides” (Nature Communications, 2023)
Like-named read-outs stand apart in the source and are kept apart here.

Columns and labels:
[1] = Zeta-potential measurement; type: physicochemical; set-up: Zeta-Potential: unit not given here
Method: (§1) 4 µL of 1 mg/mL peptide fibrils solution is added to a 20 µL, 50 µM ThT–solution in PBS. The mixture is incubated for 15 min at RT to allow binding of ThT dye with β–sheet rich structures. For reference PBS (4 µL) was added instead of peptide fibril solution. The samples were placed in black UV Star® 384 microliter well–plates (Greiner bio–one). Fluorescence spectra were recorded on an Infinite® M1000 PRO microplate reader (Tecan) at λem = 488 nm upon excitation at λex = 440 nm with 10 nm bandwidths and multiple reads per well (3×3). Measurements were repeated in triplicates and averaged with standard deviation. […] Zeta-Potential. For the determination of the surface charge of aggregated peptides zeta-potential measurements were conducted with a Zetasizer Nano ZS, Malvern Instruments. Unless stated otherwise the peptides were dissolved from DMSO (10 mg/mL) in PBS (pH 7.4) to concentration of 1 mg/mL and incubated for 1d at RT. Just before the measurement the 60 µL of the peptides were further diluted in 600 µL KCl (aq, 1 mM) in a 1 mL disposable folded capillary cells (DTS–1060, Zetasizer Nano series, Malvern). The zeta potential of the peptides was derived from the electrophoretic mobility based on the Smoluchowski formula. All measurements were averaged over two individually performed experiments and conducted in triplicates for each sample. Aggregate analysis. […] Furthermore, fluorescence microscopy was conducted by staining 1 µL preformed fibrils (1 mg/mL) with 9 µL ThT (50 µM). Brightfield microscopy was performed simultaneously to evaluate aggregation also for non ThT-active fibrils. The measurements were performed on a Leica DMi8 microscope with 10x air objective and equipped with a Leica MC170 HD camera with a filter setting λem = 527/30 nm upon excitation at λex = 480/40 nm) and processed with the Leica LASX software. To quantify size and number of microscopic aggregation of particles > 10 µm^2 at least 3 independently measured images were analyzed via the 3D object counter analysis tool of ImageJ, v 1.53f51. Sum–frequency generation. The SFG experiments were carried out with a femtosecond Ti: Sapphire amplified laser system (Spitfire Ace, Spectra–Physics, 800 nm, 40 fs, 1 kHz) with 5 W output power. We used 2 W to pump an optical parametric amplifier (TOPAS, light conversion) with a non–collinear difference frequency generation stage to generate broadband IR pulses. Another 1 W of the laser output passed through an etalon to generate narrowband visible pulses (10 cm^-1). The incident angles of the visible and IR beams were 36° and 41° with respect to the surface normal, respectively. The visible (13 µJ) and IR (5 µJ) pulses were overlapped spatially and temporally at the sample position. Subsequently, the generated SFG pulse was guided into a spectrograph (Acton SP 300i, Princeton Instruments), and detected with an EMCCD (Newton, Andor Technology). To avoid IR absorption of water vapor, we purged N2 for the measurement. All spectra were collected in the ssp (denoting s-, s- and p-polarized SFG, visible and IR, respectively) polarization combination. The spectra were normalized to the non–resonant signal taken from z–cut quartz after subtracting a background spectrum. […]

[2] = type: physicochemical; set-up: key to Fibril / Fibril Formation / TEM 2cat / Fibril: 1 = fibrils present; 0 non-fibrillar structures; details: for Fibril / Fibril Formation: 1 mg/mL, uranyl acetate stain, qualitative
Method: For ATR FT–IR spectroscopy measurements, 200 µL of the respective 1 mg/mL PNF solution was lyophilized and the resulting powder used for measurement. All spectra were recorded on a Bruker Tensor 27 spectrometer with a diamond crystal as ATR element (PIKE MiracleTM, spectral resolution 2 cm^-1). Every sample was measured with 64 scans. Data were analyzed with OriginLab software and calculation of β–sheet content was conducted according to a previous report. TEM. For TEM measurements 5 µL of PNF fibrils (1 mg/mL) were placed on copper grids coated with carbon and formvar layer (300 mesh, Plano GmbH). After 10 min incubation time, the grids were staining with 4% uranyl acetate solution for 2.5 min and washed with water. Measurements were performed on a Jeol 1400 electron microscope with 120 kV acceleration voltage. CR Assay. For the determination of the amount of peptide monomer converting into nanostructures the amine reactive dye fluorescamine was used analogous to a previous reported protocol. Briefly, 100 µL of the preformed PNF solution was centrifuged in a Vivaspin 500 tube (3 kDa MWCO) to separate fibers from free peptide monomer (16200 x g, 4 °C, 45 min). The filtrate and 100 μL of the non-filtered PNF sample were lyophilized and dissolved in 30 μL DMSO. 10 μL of the filtrate and non-filtered DMSO samples were submitted in a black UV Star® 384 microliter well–plates (Greiner bio–one) and 3 μL of the fluorescamine solution (10 mg/mL, DMSO) was added to measure the fluorescence enhancement. After 20 min of incubation at RT, fluorescence was recorded on an Infinite® M1000 PRO microplate reader (Tecan) at λem = 470 nm upon excitation at λex = 365 nm with 10 nm bandwidths and multiple reads per well (3×3). Measurements were repeated in triplicates and averaged with standard deviation. All values were calculated as n-fold fluorescence enhancement (DMSO only as a reference was set to 1). The conversion rate CR was defined according to the equation Eq. (3).3 CR=100−100×fluorescenceintensityfiltrate/fluorescenceintensityoriginal[%]
(§2) 1. Remarks on experimental parameters and bioinformatic descriptors
1.1 Experimental parameters
Transmission electron microscopy (TEM) measurements. TEM measurements were used to control if peptides assemble. The assemblies were categorized in non -fibrillar structures (no assembly, […]
grid but only amorphous aggregates. In contrast, peptides defined as fibrillar may also include amorphous structures. Amongst nonfibrillar assemblies also amorphous aggregates are summarized.
Amorphous aggregates are defined as structures with high β-sheet content which lack long-range order, that is crystallinity or fibril formation. It is generally assumed that these structures might be

[3] = type: physicochemical
Method: 4 µL of 1 mg/mL peptide fibrils solution is added to a 20 µL, 50 µM ThT–solution in PBS. The mixture is incubated for 15 min at RT to allow binding of ThT dye with β–sheet rich structures. For reference PBS (4 µL) was added instead of peptide fibril solution. The samples were placed in black UV Star® 384 microliter well–plates (Greiner bio–one). Fluorescence spectra were recorded on an Infinite® M1000 PRO microplate reader (Tecan) at λem = 488 nm upon excitation at λex = 440 nm with 10 nm bandwidths and multiple reads per well (3×3). Measurements were repeated in triplicates and averaged with standard deviation. […] Zeta-Potential. For the determination of the surface charge of aggregated peptides zeta-potential measurements were conducted with a Zetasizer Nano ZS, Malvern Instruments. Unless stated otherwise the peptides were dissolved from DMSO (10 mg/mL) in PBS (pH 7.4) to concentration of 1 mg/mL and incubated for 1d at RT. Just before the measurement the 60 µL of the peptides were further diluted in 600 µL KCl (aq, 1 mM) in a 1 mL disposable folded capillary cells (DTS–1060, Zetasizer Nano series, Malvern). The zeta potential of the peptides was derived from the electrophoretic mobility based on the Smoluchowski formula. All measurements were averaged over two individually performed experiments and conducted in triplicates for each sample. Aggregate analysis. […] Furthermore, fluorescence microscopy was conducted by staining 1 µL preformed fibrils (1 mg/mL) with 9 µL ThT (50 µM). Brightfield microscopy was performed simultaneously to evaluate aggregation also for non ThT-active fibrils. The measurements were performed on a Leica DMi8 microscope with 10x air objective and equipped with a Leica MC170 HD camera with a filter setting λem = 527/30 nm upon excitation at λex = 480/40 nm) and processed with the Leica LASX software. To quantify size and number of microscopic aggregation of particles > 10 µm^2 at least 3 independently measured images were analyzed via the 3D object counter analysis tool of ImageJ, v 1.53f51. Sum–frequency generation. The SFG experiments were carried out with a femtosecond Ti: Sapphire amplified laser system (Spitfire Ace, Spectra–Physics, 800 nm, 40 fs, 1 kHz) with 5 W output power. We used 2 W to pump an optical parametric amplifier (TOPAS, light conversion) with a non–collinear difference frequency generation stage to generate broadband IR pulses. Another 1 W of the laser output passed through an etalon to generate narrowband visible pulses (10 cm^-1). The incident angles of the visible and IR beams were 36° and 41° with respect to the surface normal, respectively. The visible (13 µJ) and IR (5 µJ) pulses were overlapped spatially and temporally at the sample position. Subsequently, the generated SFG pulse was guided into a spectrograph (Acton SP 300i, Princeton Instruments), and detected with an EMCCD (Newton, Andor Technology). To avoid IR absorption of water vapor, we purged N2 for the measurement. All spectra were collected in the ssp (denoting s-, s- and p-polarized SFG, visible and IR, respectively) polarization combination. The spectra were normalized to the non–resonant signal taken from z–cut quartz after subtracting a background spectrum.
as §2

[4] = Turbidity, derived count rate of scattered light; type: physicochemical; details: for Count Rate / kcps: derived count rate of scattered light at 633 nm, 173°, from zeta-potential measurement, 0.1 mg/mL in 1 mM KCl after 1 d at 1 mg/mL in PBS, turbidity / microscopic aggregation, mean of triplicate
Method: as §1
ways to determine turbidity of samples, this can be via transmittance and via scattering. Transmittance […]
as it is an easy and fast method.10,11 However, transmittance contributes not only from µm-sized aggregates but also nm-sized aggregates such as distinct fibrils, which makes hard to distinguish between fibril formation and micrometer sized aggregation. Although dynamic light scattering is a frequently applied method for determination of particle size, it cannot be conducted in solutions with anisotropic aggregates in micrometer size range, since the Stokes-Einstein relation is only applicable for homogeneous […] spherical particles.12 Further models describing scattering intensity and […]

[5] = tested on: HIV-1 infection of TZM-bl cells; assay: HIV-1 infectivity enhancement assay, β-galactosidase luminescence; type: cell-based; details: for Log10 Infection Rel EF-C: log10 of infection relative to EF-C; for Inf. rel. EF-C: n-fold infection vs virus only, relative to that of EF-C, 1.3 µM peptide; for Abs Infection at 0.26µM: peptide 0.26 µM; for Abs Infection at 0.26µM / Abs Infection at 1.3 µM / Abs Infection at 6.5 µM: mean of n = 3, Figure 7A; for Abs Infection at 1.3 µM: peptide 1.3 µM; for Abs Infection at 6.5 µM: peptide 6.5 µM
[6] = Turbidity, derived count rate of scattered light; type: physicochemical; details: log10 of derived count rate of scattered light, Figure 7B

EFEFQFNMWQ [JH1]
Zeta category ( +1 = if > 4 mV;-1 = if < -4 mV; 0 = -4mV to 4 mV) [1]: 0 (0 = -4mV to 4 mV) | Zeta category ( +1 = if > 4 mV;-1 = if < -4 mV; 0 = -4mV to 4 mV) ([1]; category derived from the zeta potential): 0 (0 = -4mV to 4 mV) | TEM: 1= fibrils, 0= aggregates (micelle), 0.5 = aggregates and fibrils, -1 = nothing obersved, STD prep [2]: 1 | TEM: 1= fibrils, 0= aggregates (micelle), 0.5 = aggregates and fibrils, -1 = nothing obersved, STD prep ([2]; TEM): 1

ILKNLSRSRKIKIQINMWQ [TM92]
Zeta category ( +1 = if > 4 mV;-1 = if < -4 mV; 0 = -4mV to 4 mV) ([1]; category from zeta potential): 1 (+1 = if > 4 mV) | Zeta Pot. / mV ([1]; mean, Std Zeta in next column): 19.2 mV | Zeta-pot. / mV ([1]; zeta potential of peptide, Fig S15 source data): 19.2 mV | Tht rel to blank (42.1851851851852) ([3]; ThT fluorescence relative to blank (42.1851851851852 a.u.)): 3.339 | Zeta Count Rate Category ([4]; category 1 or 0 from count rate, key not given): 1 | Zeta Count Rate / kcps ([4]; derived count rate of scattered light, mean, std deviation in next column): 306.5 kcps | Log10 of Rel to EFC (Feb2021) ([5]; Feb2021, Log10 of infectivity relative to EF-C): -0.4939 | Rel-to EFC (Feb-2021) ([5]; Feb2021, n-fold enhancement relative to EF-C): 0.3207 | infectivity ([5]; infectivity class (low / medium / high) of each library peptide, main list in c1-c6, same classes repeated in sub-lists of sequences containing the hydrophobicity/charge patterns P+,H0,P+,H0,P0,H0,P0, P+,H0,P0,H0,P0,H0,P0, P+,H0,P0,H0): medium | Log10 Inf. rel. to EF-C ([5]; log10 of HIV-1 infection of TZM-bl cells relative to EF-C, Fig S15 source data, asymmetric std dev errors): -0.4939

ISKLEYSNFSVRY [reference compound]
Zeta pot. / mV ([1]; 1 mg/mL in PBS pH 7.4 from 10 mg/mL DMSO stock, 1 d RT, 60 µL diluted in 600 µL 1 mM KCl, Zetasizer Nano ZS, Smoluchowski, mean of triplicate): 9.3 mV | Zeta-Potential / mV ([1]; mean, Figure 7B): 9.33 mV | Fibril / Fibril Formation ([2]; TEM): 1 | Count Rate / kcps [4]: 7807 kcps | Log10 Count Rate [6]: 3.893 | Log10 Infection Rel EF-C ([5]; Figure 7B): -0.26 | Inf. rel. EF-C [5]: 0.54 | Abs Infection at 0.26µM [5]: 23820 | Abs Infection at 1.3 µM [5]: 58613.33333 | Abs Infection at 6.5 µM [5]: 157450

KCQCQCQ
Zeta-Potential / mV ([1]; mean, Figure 6C): 11.83 mV | Fibril / Fibril Formation ([2]; TEM): 1 | Count Rate / kcps [4]: 15236 kcps | Log10 Count Rate ([4]; log10 of derived count rate of scattered light, Figure 6C): 4.183 | Log10 Count Rate ([4]; logarithm of count rate in kcps): 4.183 | Log10 Infection Rel EF-C ([5]; Figure 6C): 0.05949 | Inf. rel. EF-C [5]: 1.15

LANWMCLAKW [reference compound]
Zeta Potential ([1]; mean of n = 3): 14.73 | Zeta-Potential / mV ([1]; mean, Figure 7B): 14.73 mV | Zeta-Potential ([1]; replicate 1): 14.5 | Zeta-Potential ([1]; replicate 2): 14.6 | Zeta-Potential ([1]; replicate 3): 15.1 | ThT Cat. / ThT-Fluorescence (categorical) ([3]; ThT-active if fluorescence at least twice the control): 1 (ThT. Cat is 1, if Rel. ThT >2) | Count Rate / kcps [4]: 15062 kcps | Count Rate ([4]; derived count rate of scattered light, mean of n = 3): 15061.73333 kcps | Count Rate ([4]; derived count rate of scattered light, replicate 1): 20482.8 kcps | Count Rate ([4]; derived count rate of scattered light, replicate 2): 10116.2 kcps | Count Rate ([4]; derived count rate of scattered light, replicate 3): 14586.2 kcps | Log10 Count Rate [6]: 4.178 | Log10 Infection Rel EF-C ([5]; Figure 7B): -0.4 | Inf. rel. EF-C [5]: 0.40 | Abs Infection at 0.26µM [5]: 44873.33333 | Abs Infection at 1.3 µM [5]: 80126.66667 | Abs Infection at 6.5 µM [5]: 133423.3333
